Results published in patent US12030896B2, “PIKfyve inhibitors” (Mayo Foundation for Medical Education and Research, priority 2018, dated 2024).
Like-named read-outs stand apart in the source and are kept apart here.

What was measured:
[1] = Pharmacokinetic study of Example 1 in mouse (IV, IP, PO); type: in vivo, Male C57BL/6 Mouse; details: male, C57BL/6, mouse, plasma; for AUC(0-inf): read-out: AUC0-inf; for Cmax: read-out: Cmax; for MRT inf: read-out: MRT0-inf; for MRT last: read-out: MRT0-last; for Tmax: read-out: Tmax; for concentration at 0.25 h: 0.250 h; for concentration at 0.5 h: 0.500 h; for C0: read-out: C0; for Vd: read-out: Vdss; for bioavailability: calculated using AUC0-inf or AUC0-last with nominal dose
Method: Species: Male C57BL/6 Mouse, fasted.
PK/PD testing of the compound was performed in mice, after IP, IV, or oral administration.

[2] = system: E2409 murine lymphoma cells; test: E2409 lymphoma flank tumor survival study; type: in vivo, Nude mice; details: 1 mg daily IP injection vs vehicle only; p<0.02
Method: Nude mice were injected in the flank with 1 million E2409 murine lymphoma cells, and allowed to grow for 4 days, at which point a small detectable lump was observed on each mouse. Mice were injected daily by IP injection with 100 μl of vehicle (10% dmso, 20% cremaphor, 70% water) with or without 1 mg of the test compound. Mice were euthanized when tumor size exceeded 1500 mm^3.

[3] = ip, 30 mg/kg, IP 30 mg/kg, individual mice M4-M6
[4] = ip, 30 mg/kg, IP 30 mg/kg, mean
[5] = iv, 5 mg/kg, IV 5 mg/kg, individual mice M1-M3
[6] = po, 30 mg/kg, PO 30 mg/kg, individual mice M7-M9
[7] = po, 30 mg/kg, PO 30 mg/kg, mean

Work on `Cc1ccc(Nc2nc(N/N=C/c3c[nH]c4ccccc34)nc(N3CCOCC3)n2)cc1` [Example 1, (E)-4-(2-((1H-indol-3-yl)methylene)hydrazinyl)-6-morpholino-N-(p-tolyl)-1,3,5-triazin-2-amine] yielded a concentration at 6 h [1, 3] of 97.8 ng/mL, a concentration at 6 h [1, 4] of 105 ng/mL and a concentration at 24 h [1, 3] of 35 ng/mL. The concentration at 24 h [1, 4] was 36.6 ng/mL, the AUC(0-t) [1, 3] was 2520 ng·h/mL and the AUC(0-inf) [1, 3] was 3060 ng·h/mL. The Cmax [1, 3] was 443 ng/mL, the MRT inf [1, 3] was 13 h and the MRT last [1, 3] was 7.2 h. For the same molecule, the half-life ([1]; ip, 30 mg/kg, IP 30 mg/kg, individual mice M4-M6, read-out: T1/2 (converted)) was 10.9 h, the Tmax [1, 3] was 1 h and the AUC(0-t) [1, 4] was 2850 ng·h/mL. For the same molecule, the AUC(0-inf) [1, 4] was 3390 ng·h/mL, the Cmax [1, 4] was 534 ng/mL and the MRT inf [1, 4] was 12 h. It also gave an MRT last [1, 4] of 6.91 h, a half-life ([1]; ip, 30 mg/kg, IP 30 mg/kg, mean, read-out: T1/2 (converted)) of 10.1 h and a Tmax [1, 4] of 1.33 h. It also gave a half-life ([1]; ip, 30 mg/kg, IP, single 30 mg/kg dose, read-out: half life (converted)) of 10.1 h, a concentration at 5 min [1, 5] of 1300 ng/mL and a concentration at 5 min ([1]; iv, 5 mg/kg, IV 5 mg/kg, mean) of 1630 ng/mL. For the same molecule, the concentration at 0.25 h [1, 5] was 1140 ng/mL, the concentration at 0.25 h ([1]; iv, 5 mg/kg, IV 5 mg/kg, mean) was 1310 ng/mL and the concentration at 0.5 h [1, 5] was 832 ng/mL. The concentration at 0.5 h ([1]; iv, 5 mg/kg, IV 5 mg/kg, mean) was 1010 ng/mL, the concentration at 1 h [1, 5] was 529 ng/mL and the concentration at 1 h ([1]; iv, 5 mg/kg, IV 5 mg/kg, mean) was 599 ng/mL. It also gave a concentration at 2 h [1, 5] of 176 ng/mL, a concentration at 2 h ([1]; iv, 5 mg/kg, IV 5 mg/kg, mean) of 183 ng/mL and a concentration at 4 h [1, 5] of 17.4 ng/mL. It also gave a concentration at 4 h ([1]; iv, 5 mg/kg, IV 5 mg/kg, mean) of 16.8 ng/mL, a concentration at 6 h [1, 5] of 5.13 ng/mL and a concentration at 6 h ([1]; iv, 5 mg/kg, IV 5 mg/kg, mean) of 4.2 ng/mL. The AUC(0-t) [1, 5] was 1370 ng·h/mL, the clearance [1, 5] was 60.5 mL/min/kg and the AUC(0-inf) [1, 5] was 1380 ng·h/mL. For the same molecule, the C0 [1, 5] was 1390 ng/mL, the MRT inf [1, 5] was 0.959 h and the MRT last [1, 5] was 0.936 h. It also gave a half-life ([1]; iv, 5 mg/kg, IV 5 mg/kg, individual mice M1-M3, read-out: T1/2 (converted)) of 0.71 h, a Vd [1, 5] of 3.48 L/kg and an AUC(0-t) ([1]; iv, 5 mg/kg, IV 5 mg/kg, mean) of 1580 ng·h/mL. It also gave a clearance ([1]; iv, 5 mg/kg, IV 5 mg/kg, mean) of 53.4 mL/min/kg, an AUC(0-inf) ([1]; iv, 5 mg/kg, IV 5 mg/kg, mean) of 1580 ng·h/mL and a C0 ([1]; iv, 5 mg/kg, IV 5 mg/kg, mean) of 1820 ng/mL. It also gave an MRT inf ([1]; iv, 5 mg/kg, IV 5 mg/kg, mean) of 0.899 h, an MRT last ([1]; iv, 5 mg/kg, IV 5 mg/kg, mean) of 0.882 h and a half-life ([1]; iv, 5 mg/kg, IV 5 mg/kg, mean, read-out: T1/2 (converted)) of 0.667 h. It also gave a Vd ([1]; iv, 5 mg/kg, IV 5 mg/kg, mean) of 2.9 L/kg, a concentration at 0.25 h [1, 6] of 52.7 ng/mL and a concentration at 0.25 h [1, 7] of 59.1 ng/mL. For the same molecule, the concentration at 0.5 h [1, 6] was 167 ng/mL, the concentration at 0.5 h [1, 7] was 122 ng/mL and the concentration at 1 h [1, 7] was 92 ng/mL. The concentration at 2 h [1, 7] was 30.5 ng/mL, the concentration at 4 h [1, 7] was 7.49 ng/mL and the concentration at 6 h [1, 6] was 11 ng/mL. For the same molecule, the concentration at 6 h [1, 7] was 10 ng/mL, the AUC(0-inf) [1, 6] was 312 ng·h/mL and the Cmax [1, 6] was 167 ng/mL. The MRT inf [1, 6] was 2.1 h, the MRT last [1, 6] was 1.69 h and the half-life ([1]; po, 30 mg/kg, PO 30 mg/kg, individual mice M7-M9, read-out: T1/2 (converted)) was 1.31 h. The Tmax [1, 6] was 0.5 h, the AUC(0-t) [1, 7] was 188 ng·h/mL and the AUC(0-inf) [1, 7] was 211 ng·h/mL. The Cmax [1, 7] was 122 ng/mL, the MRT inf [1, 7] was 2.4 h and the MRT last [1, 7] was 1.61 h. The half-life ([1]; po, 30 mg/kg, PO 30 mg/kg, mean, read-out: T1/2 (converted)) was 1.54 h, the Tmax [1, 7] was 0.5 h and the bioavailability ([1]; IP 30 mg/kg) was 35.7%. For the same molecule, the bioavailability ([1]; PO 30 mg/kg) was 2.22% and the survival [2] was “prolonged survival”.
